# Assay results taken from patent publication US12590093B2, “Indolo[2′,3′:3,4]pyrido[2,1-b]quinazoline compound and use thereof” (INSTITUTE OF MEDICINAL BIOTECHNOLOGY CHINESE ACADEMY OF …, priority 2019, dated 2026).
# Entries after “also recorded” stand apart in the source; their conditions may differ.
# Legend:
# MAPK signaling pathway = test: Western-blot of MAPK signaling pathway in ApoE−/− mice; assay type: in vivo; conditions: FIG. 8
# Experimental: 6-week-old male C57/BL6 ApoE^−/− mice were fed on normal chaw diet for one week. The mice were randomly divided into three groups (control group, high-fat diet model group, and treatment group, 12 mice per group) according to the body weight. From 7-week-old, the high-fat diet model group and the treatment group were fed on a high fat diet (HFD) (0.15% cholesterol and 20% fat), and the control group was fed on normal chow diet. The treatment group (R3) mice were administered intragastrically with TR3 (5 mg/kg). The control group and the high-fat diet model group mice were intragastrically administered with sodium carboxymethylcellulose (CMC-Na) solution. After 12 weeks of administration, all mice were fasted overnight. The blood sample was taken from the retro-orbital plexus, collected in a EP tube, and then centrifuged for 15 min (2500 rpm). The centrifuged serum (upper layer) was transferred to new EP tubes (divided into two aliquots) and stored at −20° C. for further use. The mice were fixed, and the skin was cut open along the midline of the abdomen to the neck. The abdominal cavity was cut open to collect the fresh liver tissue. The Liver tissue was put into 3 freezing tubes, and then immediately put into liquid nitrogen for subsequent detection of liver lipid detection and extraction of RNA and protein. The thorax was cut open to expose the heart. The heart was perfused with 10 ml PBS, and then fixed by perfusion with 4% paraformaldehyde solution until the liver turned white. The fixed liver was taken out and placed in a six-well plate containing 4% paraformaldehyde solution for further fixation. […]
# (§1) When animal tissues were used to prepare protein samples, the tissues were firstly homogenized and lysed in the RIPA lysis buffer. […] When cell supernatants were used to prepare protein samples, the supernatants were freeze-dried, needed to be extracted using a protein recovery kit (Applygen, Beijing, China), and then analyzed by western-blot. […]
# ABCA1 [1] = test: ABCA1 protein expression in liver of ApoE−/− mice; assay type: in vivo; conditions: FIG. 10
# Experimental: (§2) 6-week-old male C57/BL6 ApoE^−/− mice were fed on normal chaw diet for one week. The mice were randomly divided into three groups (control group, high-fat diet model group, and treatment group, 12 mice per group) according to the body weight. From 7-week-old, the high-fat diet model group and the treatment group were fed on a high fat diet (HFD) (0.15% cholesterol and 20% fat), and the control group was fed on normal chow diet. The treatment group (R3) mice were administered intragastrically with TR3 (5 mg/kg). The control group and the high-fat diet model group mice were intragastrically administered with sodium carboxymethylcellulose (CMC-Na) solution. After 12 weeks of administration, all mice were fasted overnight. The blood sample was taken from the retro-orbital plexus, collected in a EP tube, and then centrifuged for 15 min (2500 rpm). The centrifuged serum (upper layer) was transferred to new EP tubes (divided into two aliquots) and stored at −20° C. for further use. […]
# When animal tissues were used to prepare protein samples, the tissues were firstly homogenized and lysed in the RIPA lysis buffer. […] When cell supernatants were used to prepare protein samples, the supernatants were freeze-dried, needed to be extracted using a protein recovery kit (Applygen, Beijing, China), and then analyzed by western-blot.
# NF-κB signaling pathway = test: Western-blot of NF-κB signaling pathway in liver of ApoE−/− mice; assay type: in vivo; conditions: FIG. 7
# Experimental: as §2, §1
# LXRβ = target: T1, LXRβ (Homo sapiens, UniProt P55055); test: Nuclear receptor reporter gene transient transfection (pBIND-hLXRs-LBD) in HepG2 cells, LXRβ; assay type: cell-based
# T1 construct: expressed in transfected cells; host or cells: HepG2
# T1 sequence (P55055 222-460 limits assumed): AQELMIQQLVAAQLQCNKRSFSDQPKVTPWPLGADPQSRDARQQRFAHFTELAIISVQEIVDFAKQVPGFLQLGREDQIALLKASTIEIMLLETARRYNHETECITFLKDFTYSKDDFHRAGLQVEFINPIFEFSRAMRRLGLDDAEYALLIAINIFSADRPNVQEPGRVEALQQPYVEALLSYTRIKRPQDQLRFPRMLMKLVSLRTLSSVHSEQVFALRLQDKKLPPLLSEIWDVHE
# Experimental: (§3) HepG2 cells in logarithmic growth phase were digested, seeded into the white/clear 96-well plate at a density of 5×10^4 cells/well/100 μL until the cells grew to about 90% confluence and in good condition. 0.5 μL liposome (Lipofectamine® 2000) diluted with blank medium to 25 μL per well and incubated at room temperature for 5 min. The corresponding plasmids DNA (nuclear receptor plasmid:Gal4=1:10) were diluted in blank DMEM medium to 25 μL/well (mixing of two plasmids), then mixed evenly with the diluted liposome, and incubated for 20 min at 37° C. The DNA-liposome complex (50 μL per well) was added with the DMEM complete medium (100 μL per well) and mixed thoroughly to obtain a DNA-liposome complex cell culture. The cell medium was discarded, and replaced with the DNA-liposome complex cell culture (150 μL/well) (37° C., 5% CO2). After 6 h, the DNA-liposome complex cell culture medium was discarded, and 200 μL serum-free DMEM medium containing the compound at an appropriate concentration was added to each test well, and cultured for 18-24 h. The cell Luciferase activity was measured by the method as described in the Luciferase Assay System.
# LXRα = target: T2, LXRα (Homo sapiens, UniProt Q13133); test: Nuclear receptor reporter gene transient transfection (pBIND-hLXRs-LBD) in HepG2 cells, LXRα; assay type: cell-based
# T2 construct: expressed in transfected cells; host or cells: HepG2
# T2 sequence (Q13133 209-447 limits assumed): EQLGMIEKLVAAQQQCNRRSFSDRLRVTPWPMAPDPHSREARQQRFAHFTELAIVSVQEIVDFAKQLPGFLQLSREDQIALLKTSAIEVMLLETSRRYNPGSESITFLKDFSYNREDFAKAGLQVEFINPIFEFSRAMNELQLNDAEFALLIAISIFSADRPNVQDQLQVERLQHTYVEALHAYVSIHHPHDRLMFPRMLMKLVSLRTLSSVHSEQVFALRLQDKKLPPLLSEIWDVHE
# Experimental: as §3
# ApoE^−/− mice = test: Serum lipid levels in ApoE−/− mice; assay type: in vivo; conditions: 5 mg/kg intragastrically, 12 weeks, HFD, versus model group
# Experimental: 6-week-old male C57/BL6 ApoE^−/− mice were fed on normal chaw diet for one week. The mice were randomly divided into three groups (control group, high-fat diet model group, and treatment group, 12 mice per group) according to the body weight. From 7-week-old, the high-fat diet model group and the treatment group were fed on a high fat diet (HFD) (0.15% cholesterol and 20% fat), and the control group was fed on normal chow diet. The treatment group (R3) mice were administered intragastrically with TR3 (5 mg/kg). The control group and the high-fat diet model group mice were intragastrically administered with sodium carboxymethylcellulose (CMC-Na) solution. After 12 weeks of administration, all mice were fasted overnight. The blood sample was taken from the retro-orbital plexus, collected in a EP tube, and then centrifuged for 15 min (2500 rpm). The centrifuged serum (upper layer) was transferred to new EP tubes (divided into two aliquots) and stored at −20° C. for further use. The mice were fixed, and the skin was cut open along the midline of the abdomen to the neck. The abdominal cavity was cut open to collect the fresh liver tissue. The Liver tissue was put into 3 freezing tubes, and then immediately put into liquid nitrogen for subsequent detection of liver lipid detection and extraction of RNA and protein. The thorax was cut open to expose the heart. The heart was perfused with 10 ml PBS, and then fixed by perfusion with 4% paraformaldehyde solution until the liver turned white. The fixed liver was taken out and placed in a six-well plate containing 4% paraformaldehyde solution for further fixation. The full-length aorta (from the ascending aorta to the common iliac arteries) was isolated and placed in a six-well plate containing 4% paraformaldehyde solution. The aorta was fixed in 4% paraformaldehyde solution overnight and then stored in 20% sucrose solution at 4° C.
# The plasma biochemical indices were measured by using commercially available kits (Biosino Bio-technology and Science Inc., China) and the automatic biochemical analyzer.
# PPARγ = target: T3, PPARγ (Homo sapiens, UniProt P37231); test: Nuclear receptor reporter gene transient transfection (pBIND-hPPARs-LBD) in HepG2 cells, PPARγ; assay type: cell-based; conditions: FIG. 2, result in words
# T3 construct: expressed in transfected cells; host or cells: HepG2
# T3 sequence (P37231 238-503 limits assumed): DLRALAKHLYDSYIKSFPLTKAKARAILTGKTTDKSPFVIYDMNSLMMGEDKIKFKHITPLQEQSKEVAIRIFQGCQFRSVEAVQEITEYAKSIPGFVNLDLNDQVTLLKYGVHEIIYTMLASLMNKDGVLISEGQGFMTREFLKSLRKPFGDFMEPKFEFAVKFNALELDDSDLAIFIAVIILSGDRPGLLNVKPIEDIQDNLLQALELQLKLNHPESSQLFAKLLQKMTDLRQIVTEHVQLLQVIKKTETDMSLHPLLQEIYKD
# Experimental: as §3
# ABCA1 [2] = test: ABCA1 up-regulation, luciferase reporter in ABCA1P-LUC HepG2 cells; assay type: cell-based; conditions: co-incubated with MK886, GW9662, GSK3787 or GGPP
# [3] = HepG2 cells, reporter gene, 18-24 h
structure (smiles),measurement,setting,value
"c1ccc2c(c1)CN1CCc3c([nH]c4ccccc34)C1=N2 [TR3, 5,7,8,13-tetrahydroindolo[2′,3′:3,4]pyrido[2,1-b]quinazoline]",expression of p-ERK,MAPK signaling pathway,also inhibited
same,expression of p-JNK,MAPK signaling pathway,also inhibited
same,expression of p-P38,MAPK signaling pathway,also inhibited
same,expression of ABCA1 in the liver,ABCA1 [1],increased
same,expression of p-IκBα,NF-κB signaling pathway,significantly inhibited
same,expression of p-P65,NF-κB signaling pathway,significantly inhibited
same,LXRβ max,LXRβ; [3],1.42
same,LXRβ agonist activity,LXRβ; result in words,showed agonist activity; also recorded: simultaneously activated PPARα/γ/δ and LXRα/β to a certain extent
same,LXRα max,LXRα; [3],1.36
same,LXRα agonist activity,LXRα; result in words,showed agonist activity; also recorded: simultaneously activated PPARα/γ/δ and LXRα/β to a certain extent
same,level of LDL-C in serum,ApoE^−/− mice,greatly decreased
same,level of TC in serum,ApoE^−/− mice,greatly decreased
same,level of TG in serum,ApoE^−/− mice,greatly decreased
same,activation of PPARγ,PPARγ,simultaneously activated PPARα/γ/δ and LXRα/β to a certain extent
same,up-regulating transcription activity of ABCA1 when co-incubated with nuclear receptor inhibitor,ABCA1 [2],significantly inhibited
